Measurements published in US20160067246A1, “USE OF PHOSPHODIESTERASE 5A INHIBITORS FOR THE TREATMENT OF MUSCULAR DYSTROPHY” (CEDARS-SINAI MEDICAL CENTER, priority 2013, published 2016).

Tests used:
[1] = tested on: patients with Becker muscular dystrophy (BMD); assay: Functional sympatholysis: LBNP-induced decrease in forearm muscle oxygenation (NIR spectroscopy) at rest vs handgrip, tadalafil acute crossover trial; assay type: in vivo, human
Experimental: Forearm muscle oxygenation was measured with near-infrared (NIR) spectroscopy, which is based on the principle that laser light with wavelengths in the 700-900 nm range easily penetrates skeletal muscle, and is absorbed by the iron-porphyrin moieties in hemoglobin and myoglobin. Changes in NIR light absorption are proportional to changes in the relative concentrations of oxygenated hemoglobin and myoglobin (HbO2 and MbO2). Because of their nearly identical absorption spectra, individual contributions of HbO2 and MbO2 cannot be determined. The NIR signals reflect changes in oxygenation occurring mainly in the microvasculature, because vessels greater than one millimeter in diameter are maximal absorbers of photons due to the high extinction coefficient of blood. Thus, NIR spectroscopy provides continuous measurement of the adequacy of tissue oxygen delivery relative to its use. […] Changes in forearm tissue oxygenation were expressed as a percentage of […] exercise was performed using a dynamometer ([…] Dynamometer modified by Stoelting, Wood Dale, Ill.). […] The pressure in the chamber was measured by a Statham transducer (Gould Inc., Oxnard, Calif.). […] Reflex vasoconstriction was measured as the LBNP-induced decrease in forearm muscle oxygenation by NIR spectroscopy; this approach provides a valid measure of reflex neurogenic vasoconstriction under these conditions (13). The BP, heart rate, handgrip force, and NIR signals were recorded in response to two minutes of LBNP applied at rest and during the third to fifth minutes of the seven-minute exercise period. […] Patients were queried about potential tadalafil-specific side-effects both for safety monitoring and to assess whether blinding was maintained. tadalafil blood levels were measured using high performance liquid chromatography/tandem mass spectrometry (NMS Labs Willow Grove, Pa.). […] Exercise-induced attenuation of reflex vasoconstriction (functional sympatholysis) was assessed by comparing the LBNP-induced AHbO2+MbO2 (% TLS) at rest vs. the LBNP-induced decrease in AHbO2+MbO2 during handgrip. […]

[2] = tested on: boys with Duchenne muscular dystrophy (DMD); assay: Functional sympatholysis (LBNP, NIR spectroscopy, rest vs handgrip) with PDE5 inhibition in DMD; assay type: in vivo, human; conditions: DMD
Experimental: Forearm muscle oxygenation was measured with near-infrared (NIR) spectroscopy, as previously described.^4B Briefly, optodes were placed over the belly of the flexor digitorum profundus, the main muscle recruited during handgrip. The optodes were housed in a customized flexible rubber casing, ensuring a fixed and invariant position of the optodes relative to each other, and was secured to the skin with adhesive. The optodes were covered with an optically dense, black vinyl sheet, to minimize interference from external light or loss of NIR transmitted light. The forearm was wrapped with an elastic bandage to minimize movement of the optodes.
Before each experiment, absorption and scattering coefficients were calibrated against an external standard. After each experiment, a cuff was inflated on the upper arm to supra-systolic pressure of 200 mmHg to establish the total labile signal (TLS, the difference between the baseline and nadir in muscle tissue oxygenation). Changes in forearm tissue oxygenation were expressed as a percentage of TLS.
Handgrip exercise was performed with a dynamometer (Smedley Hand Dynamometer modified by Stoelting). To determine maximal voluntary contraction (MVC), each subject was asked to grip the dynamometer as hard as possible. […] Subjects performed intermittent isometric handgrip (20 handgrips per minute, 50% duty cycle) at 20% MVC for 7 minutes.
The subjects lower body was enclosed in a negative pressure chamber to the level of the iliac crest as previously described.^9B The pressure of the chamber was measured by a Statham transducer (Gould Inc.). Lower body negative pressure (LBNP) at −20 mmHg simulates mild orthostatic stress (that is, transition from the supine to the seated position). This technique mainly unloads the cardiopulmonary baroreceptors, producing highly reproducible reflex increases in sympathetic vasoconstrictor drive to the skeletal muscle vasculature without changing systemic blood pressure.^9B
The subjects' lower body was enclosed in a negative pressure chamber to the level of the iliac crest as previously described. The pressure in the chamber was measured by a Statham transducer (Gould Inc.). Lower body negative pressure (LBNP) at −20 to −30 mmHg simulates mild orthostatic stress caused by transition from the supine to the seated position. This technique mainly unloads the low-pressure cardiopulmonary baroreceptors, producing highly reproducible reflex increases in sympathetic vasoconstrictor drive to the skeletal muscle vasculature without changing systemic blood pressure. To measure exercise-induced attenuation of reflex vasoconstriction (i.e., functional sympatholysis), the LBNP was (i) applied at rest, and then (ii) superimposed on mild rhythmic handgrip at 20% MVC. Reflex vasoconstriction was measured as the LBNP-induced decrease in forearm muscle oxygenation by NIR spectroscopy. Using the pressure inside the LBNP chamber as a trigger, the Powerlab software was programed to mean the HbO2+MbO2 signal for 20 seconds before the onset of LBNP and for 20 seconds before the offset of LBNP; the difference between these mean values was taken as the LBNP-induced change in forearm muscle tissue oxygenation (20). Blood pressure, heart rate, and handgrip force were also recorded in response to 2 minutes of LBNP applied at rest and during the third to fifth minutes of the 7-minute exercise protocol.
Patients received 0.5 mg/kg of oral sildenafil or tadalafil on day 1, followed by 1.0 mg/kg of sildenafil or tadalafil on day 2. Patients then crossed over 2 weeks later for the opposite drug. Experiments were performed 1 hour (sildenafil) or 3 hours (tadalafil) after oral treatment to match the experiment with the peak blood level. Patients were queried about potential side-effects throughout the study visit. […]

[3] = 0.5 mg/kg oral, analysis of 10 of the 12 boys
[4] = 0.5 mg/kg oral, analysis using all 12 boys
[5] = 1.0 mg/kg oral, analysis of 10 of the 12 boys
[6] = 1.0 mg/kg oral, analysis using all 12 boys

CN1CC(=O)N2[C@H](c3ccc4c(c3)OCO4)c3[nH]c4ccccc4c3C[C@@H]2C1=O [tadalafil]
attenuation of the reflex (LBNP) decrease in muscle oxygenation during handgrip ([1]; 10 BMD patients, single 20 mg oral tadalafil, >=3 h after dose): 52±12%
LBNP-induced ΔHbO2+MbO2 (% TLS) at rest ([1]; BMD patients, 20 mg tadalafil, at rest): −17±2%
LBNP-induced ΔHbO2+MbO2 (% TLS) during handgrip ([1]; BMD patients, 20 mg tadalafil, during handgrip 20% MVC): −9±2%
attenuation of the reflex decrease in muscle oxygenation during handgrip [2, 3]: 45±8%
attenuation of the reflex decrease in muscle oxygenation during handgrip ([2]; 0.5 mg/kg oral, analysis using all 12 boys (NIR in 10)): 57±16%
LBNP-induced ΔHbO2+MbO2 (% TLS) at rest [2, 3]: −20±2%
LBNP-induced ΔHbO2+MbO2 (% TLS) at rest [2, 4]: −20±2%
LBNP-induced ΔHbO2+MbO2 (% TLS) during handgrip [2, 3]: −11±1%
LBNP-induced ΔHbO2+MbO2 (% TLS) during handgrip [2, 4]: −9±3%
attenuation of the reflex decrease in muscle oxygenation during handgrip [2, 5]: 63±5%
attenuation of the reflex decrease in muscle oxygenation during handgrip ([2]; 1.0 mg/kg oral, analysis using all 12 boys (NIR in 10)): 80±11%
LBNP-induced ΔHbO2+MbO2 (% TLS) at rest [2, 5]: −17±1%
LBNP-induced ΔHbO2+MbO2 (% TLS) at rest [2, 6]: −16±2%
LBNP-induced ΔHbO2+MbO2 (% TLS) during handgrip [2, 5]: −7±1%
LBNP-induced ΔHbO2+MbO2 (% TLS) during handgrip [2, 6]: −4±2%
